From patent US7393812B2, “Methylidene mevalonates and their use as herbicides” (Dow AgroSciences LLC, priority 2004, dated 2008)

Legend:
Test in all cases: Post-emergent evaluation
Format in all cases: in vivo
Conditions in all cases: after 2 weeks
[1] = system: barnyardgrass (Echinochloa crusgalli, ECHCG)
Experimental: (§1) Seeds of the desired test plant species were planted in Grace-Sierra MetroMix® 306 planting mixture, which typically has a pH of 6.0 to 6.8 and an organic matter content of about 30 percent, in plastic pots with a surface area of 64 square centimeters. When required to ensure good germination and healthy plants, a fungicide treatment and/or other chemical or physical treatment was applied. The plants were grown for 7-21 days in a greenhouse with an approximate 15 hr photoperiod which was maintained at about 23-29° C. during the day and 22-28° C. during the night. Nutrients and water were added on a regular basis and supplemental lighting was provided with overhead metal halide 1000-Watt lamps as necessary. The plants were employed for testing when they reached the first or second true leaf stage.
(§2) A weighed amount, determined by the highest rate to be tested, of each test compound was placed in a 20 mL glass vial and was dissolved in 4 mL of a 97:3 v/v (volume/volume) mixture of acetone and dimethyl sulfoxide (DMSO) to obtain concentrated stock solutions. […] The concentrated stock solutions obtained were diluted with an aqueous mixture containing acetone, water, isopropyl alcohol, DMSO, Atplus 411F crop oil concentrate, and Triton X-155 surfactant in a 48.5:39:10:1.5:1.0:0.02 v/v ratio to obtain spray solutions of known concentration. The solutions containing the highest concentration to be tested were prepared by diluting 2 mL aliquots of the stock solution with 13 mL of the mixture and lower concentrations were prepared by serial dilution of the stock solution. Approximately 1.5 mL aliquots of each solution of known concentration were sprayed evenly onto each of the test plant pots using a DeVilbiss atomizer driven by compressed air pressure of 2 to 4 psi ([…]) to obtain thorough coverage of each plant. Control plants were sprayed in the same manner with the aqueous mixture. In this test an application rate of 1 ppm results in the application of approximately 1 g/Ha.
(§3) The treated plants and control plants were placed in a greenhouse as described above and watered by sub-irrigation to prevent wash-off of the test compounds. […] Species abbreviations as described for Table I with the following additions: soybean (Glycine max, GLXMA), rape (Brassica napus, BRSNN), chickweed (Stellaria media, STEME), cocklebur (Xanthium strumarium XANST), lambsquarters (Chenopodium album, CHEAL), violet (Viola tricolor, VIOTR), bindweed (Polygonum convolvulus, POLCO), spurge (Euphorbia heterophylla, EPHHL), Canada thistle (Cirsium arvense, CIRAR), corn (Zea mays, ZEAMX), rice (Oryza sativa, ORYSA), wheat (Triticum aestivum, TRZAS), crabgrass (Digitaria sanguinalis, DIGSA), shattercane (Sorghum vulgare, SORVU) and yellow nutsedge (Cyperus esculentus, CYPES).
(§4) By applying the well-accepted probit analysis as described by J. Berkson in Journal of the American Statistical […], 48, 565 (1953) and by D. Finney in “Probit Analysis” Cambridge University Press (1952), similar data can be used to calculate GR80 values, which are defined as growth reduction factors that correspond to the effective dose of herbicide required to kill or control 80 percent of a target plant. Species abbreviations are as previously defined.

[2] = system: chickweed (Stellaria media, STEME)
Experimental: as §1, §2, §3, §4

[3] = system: giant foxtail (Setaria faberi, SETFA)
Experimental: as §1, §2, §3, §4

[4] = system: morningglory (Ipomoea hederacea, IPOHE)
Experimental: as §1, §2, §3, §4

[5] = system: shattercane (Sorghum vulgare, SORVU)
Experimental: as §1, §2, §3, §4

[6] = system: velvetleaf (Abutilon theophrasti, ABUTH)
Experimental: as §1, §2, §3, §4

[7] = system: violet (Viola tricolor, VIOTR)
Experimental: as §1, §2, §3, §4

SMILES: C=C(CO)C(C)(O)CC(=O)O (centres unmarked) [methylidene mevalonate, 3-hydroxy-4-(hydroxymethyl)-3-methylpent-4-enoic acid]
- Postemergent % Control ([1]; spray concentration 125 ppm): 40%
- Postemergent % Control ([1]; spray concentration 250 ppm): 85%
- Postemergent % Control ([1]; spray concentration 500 ppm): 95%
- Postemergent % Control ([1]; spray concentration 1000 ppm): 95%
- Postemergent % Control ([1]; spray concentration 2000 ppm): 100%
- Postemergent % Control ([2]; spray concentration 125 ppm): 0%
- Postemergent % Control ([2]; spray concentration 250 ppm): 0%
- Postemergent % Control ([2]; spray concentration 500 ppm): 0%
- Postemergent % Control ([2]; spray concentration 1000 ppm): 20%
- Postemergent % Control ([2]; spray concentration 2000 ppm): 40%
- Postemergent % Control ([3]; spray concentration 125 ppm): 30%
- Postemergent % Control ([3]; spray concentration 250 ppm): 70%
- Postemergent % Control ([3]; spray concentration 500 ppm): 70%
- Postemergent % Control ([3]; spray concentration 1000 ppm): 80%
- Postemergent % Control ([3]; spray concentration 2000 ppm): 90%
- Postemergent % Control ([4]; spray concentration 125 ppm): 40%
- Postemergent % Control ([4]; spray concentration 250 ppm): 50%
- Postemergent % Control ([4]; spray concentration 500 ppm): 70%
- Postemergent % Control ([4]; spray concentration 1000 ppm): 80%
- Postemergent % Control ([4]; spray concentration 2000 ppm): 80%
- Postemergent % Control ([5]; spray concentration 125 ppm): 0%
- Postemergent % Control ([5]; spray concentration 250 ppm): 50%
- Postemergent % Control ([5]; spray concentration 500 ppm): 90%
- Postemergent % Control ([5]; spray concentration 1000 ppm): 90%
- Postemergent % Control ([5]; spray concentration 2000 ppm): 90%
- Postemergent % Control ([6]; spray concentration 125 ppm): 0%
- Postemergent % Control ([6]; spray concentration 250 ppm): 5%
- Postemergent % Control ([6]; spray concentration 500 ppm): 20%
- Postemergent % Control ([6]; spray concentration 1000 ppm): 50%
- Postemergent % Control ([6]; spray concentration 2000 ppm): 60%
- Postemergent % Control ([7]; spray concentration 125 ppm): 0%
- Postemergent % Control ([7]; spray concentration 250 ppm): 0%
- Postemergent % Control ([7]; spray concentration 500 ppm): 0%
- Postemergent % Control ([7]; spray concentration 1000 ppm): 25%
- Postemergent % Control ([7]; spray concentration 2000 ppm): 30%
